Laboratory results published in ChEMBL document CHEMBL1201862, “PubChem BioAssay data set” (2004).
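Growth conditions: 96-well plates. Treatment: test compound, 48 hours, 5 concentrations. Analysis: linear interpolation between bracketing concentrations; unreached endpoints set to highest concentration. GI50 is the concentration that inhibits growth by half.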 Calls of active or inactive are those of the source. No stated cut-off is given here; in the data, active = GI50 up to about 1.1 µM and inactive = higher.

Assays:
Test in all cases: NCI anticancer screen, dose series, 48 h
OVCAR-3 = test system: OVCAR-3
Hs-578T = test system: Hs-578T
SK-MEL-28 = test system: SK-MEL-28
BT-549 = test system: BT-549
K562 = test system: K562
TK-10 = test system: TK-10
RPMI-8226 = test system: RPMI-8226
SK-MEL-2 = test system: SK-MEL-2
UACC-257 = test system: UACC-257
SNB-19 = test system: SNB-19
HCT-15 = test system: HCT-15
SN12C = test system: SN12C
KM12 = test system: KM12
MOLT-4 = test system: MOLT-4
HOP-62 = test system: HOP-62
LOX IMVI = test system: LOX IMVI
NCI-H460 = test system: NCI-H460

SMILES	GI50 (OVCAR-3)	GI50 (Hs-578T)	GI50 (SK-MEL-28)	GI50 (BT-549)	GI50 (K562)	GI50 (TK-10)	GI50 (RPMI-8226)	GI50 (SK-MEL-2)	GI50 (UACC-257)	GI50 (SNB-19)	GI50 (HCT-15) [µM]	GI50 (SN12C)	GI50 (KM12)	GI50 (MOLT-4)	GI50 (HOP-62)	GI50 (LOX IMVI)	GI50 (NCI-H460)
CCOC(=O)c1c(N2CCCC2)[nH]c(=O)c(C(c2cccs2)c2c(O)c(C(=O)OCC)c(N3CCCC3)[nH]c2=O)c1O	> 100 µM (inactive)	> 100 µM (inactive)	> 100 µM (inactive)	> 100 µM (inactive)	> 100 µM (inactive)	> 100 µM (inactive)	54.6 µM (inactive)	> 100 µM (inactive)	> 100 µM (inactive)	> 100 µM (inactive)	> 100	> 100 µM (inactive)	> 100 µM (inactive)	> 100 µM (inactive)	> 100 µM (inactive)	> 100 µM (inactive)	> 100 µM (inactive)
Cc1ccc(C(=O)N/N=C2/C(=O)c3c4ccccc4cc4cccc2c34)cc1	22.5 µM (inactive)	19.1 µM (inactive)	17.7 µM (inactive)	> 100 µM (inactive)	> 21.1 µM (inactive)	25.2 µM (inactive)	22 µM (inactive)	64 µM (inactive)	> 87.9 µM (inactive)	27.6 µM (inactive)	20.6	21.8 µM (inactive)	3.89 µM (inactive)	–	16.2 µM (inactive)	12.4 µM (inactive)	15 µM (inactive)
COc1ccc2c(c1)C(=O)CC(C(N)=O)C2 (stereo not given)	> 100 µM (inactive)	> 100 µM (inactive)	> 100 µM (inactive)	> 100 µM (inactive)	> 100 µM (inactive)	> 100 µM (inactive)	> 100 µM (inactive)	> 100 µM (inactive)	> 100 µM (inactive)	> 100 µM (inactive)	> 100	> 100 µM (inactive)	> 100 µM (inactive)	> 100 µM (inactive)	> 100 µM (inactive)	> 100 µM (inactive)	> 100 µM (inactive)
C=COC(=O)N1C2CCCC(Cl)(C(C)=O)C1CC2 (stereo not given)	> 100 µM (inactive)	> 100 µM (inactive)	> 100 µM (inactive)	> 100 µM (inactive)	> 100 µM (inactive)	> 100 µM (inactive)	> 100 µM (inactive)	> 100 µM (inactive)	> 100 µM (inactive)	> 100 µM (inactive)	> 100	> 100 µM (inactive)	> 100 µM (inactive)	> 100 µM (inactive)	> 100 µM (inactive)	> 100 µM (inactive)	> 100 µM (inactive)
CCC(CC)C(=O)OC[n+]1ccc(-c2c(COC(=O)NC(C)C)c(COC(=O)NC(C)C)c3n2CCC3)cc1	> 100 µM (inactive)	> 100 µM (inactive)	–	> 100 µM (inactive)	> 100 µM (inactive)	–	> 100 µM (inactive)	–	> 100 µM (inactive)	> 100 µM (inactive)	> 100	> 100 µM (inactive)	–	> 100 µM (inactive)	> 100 µM (inactive)	–	–
COc1ccc(C(C2=C(O)COC2=O)c2cc3c(cc2O)OCO3)cc1OC (stereo not given)	> 100 µM (inactive)	> 100 µM (inactive)	> 100 µM (inactive)	> 100 µM (inactive)	> 100 µM (inactive)	> 100 µM (inactive)	> 100 µM (inactive)	> 100 µM (inactive)	> 100 µM (inactive)	> 100 µM (inactive)	> 100	> 100 µM (inactive)	> 100 µM (inactive)	> 100 µM (inactive)	> 100 µM (inactive)	> 100 µM (inactive)	> 100 µM (inactive)
CCc1[nH]c(=O)c2oc3cc4ccccc4cc3c2c1C(=O)O	> 10 µM (inactive)	> 10 µM (inactive)	–	> 10 µM (inactive)	–	> 10 µM (inactive)	–	> 10 µM (inactive)	> 10 µM (inactive)	> 10 µM (inactive)	> 10	> 10 µM (inactive)	> 10 µM (inactive)	–	–	> 10 µM (inactive)	> 10 µM (inactive)
Cc1ccc(P(c2ccc(C)cc2)c2ccc(C)cc2)cc1	15.7 µM (inactive)	15.5 µM (inactive)	24.5 µM (inactive)	35.4 µM (inactive)	4.83 µM (inactive)	31 µM (inactive)	6.05 µM (inactive)	22.2 µM (inactive)	22.1 µM (inactive)	61.8 µM (inactive)	20.2	17 µM (inactive)	15.8 µM (inactive)	16.5 µM (inactive)	–	14.9 µM (inactive)	12.9 µM (inactive)
Cc1cc2nc3ccccc3n2c2nc(N)ccc12	63.7 µM (inactive)	35.3 µM (inactive)	–	68.9 µM (inactive)	54.1 µM (inactive)	55.8 µM (inactive)	14.8 µM (inactive)	65.6 µM (inactive)	> 100 µM (inactive)	20.6 µM (inactive)	12	51.2 µM (inactive)	33 µM (inactive)	17.7 µM (inactive)	26.3 µM (inactive)	22.1 µM (inactive)	4.02 µM (inactive)
O=C(CCN1CCN2c3ccccc3CCC2C1)c1ccc(F)cc1 (stereo not given)	32.1 µM (inactive)	35.6 µM (inactive)	14.7 µM (inactive)	25.1 µM (inactive)	30.2 µM (inactive)	29.6 µM (inactive)	28.9 µM (inactive)	23 µM (inactive)	34.7 µM (inactive)	23.2 µM (inactive)	20.8	48.6 µM (inactive)	41.1 µM (inactive)	57.3 µM (inactive)	23.8 µM (inactive)	30.1 µM (inactive)	47.1 µM (inactive)
CC(C)C(=O)OCN(C)c1nc(N(C)COC(=O)C(C)C)nc(N(C)COC(=O)C(C)C)n1	36.6 µM (inactive)	17.9 µM (inactive)	19.8 µM (inactive)	20.8 µM (inactive)	30.5 µM (inactive)	85.7 µM (inactive)	22.8 µM (inactive)	23.2 µM (inactive)	19.1 µM (inactive)	42.1 µM (inactive)	21.6	28.4 µM (inactive)	24.2 µM (inactive)	22.3 µM (inactive)	33.2 µM (inactive)	14.6 µM (inactive)	21.8 µM (inactive)
Cc1nn(C(=O)c2ccccc2O)c2c1C(c1ccccc1O)SC(=N)N2 (stereo not given)	2.54 µM (inactive)	> 10 µM (inactive)	> 10 µM (inactive)	> 10 µM (inactive)	3.24 µM (inactive)	1.69 µM (inactive)	3.34 µM (inactive)	4.65 µM (inactive)	1.5 µM (inactive)	–	4.42	4.82 µM (inactive)	4.65 µM (inactive)	2.67 µM (inactive)	0.869 µM (active)	6.1 µM (inactive)	4.36 µM (inactive)
O=CN1CCN(c2ccc3ccc(O)nc3n2)CC1	> 100 µM (inactive)	> 100 µM (inactive)	> 100 µM (inactive)	> 100 µM (inactive)	> 100 µM (inactive)	> 100 µM (inactive)	> 100 µM (inactive)	> 100 µM (inactive)	> 100 µM (inactive)	> 100 µM (inactive)	> 100	> 100 µM (inactive)	> 100 µM (inactive)	> 100 µM (inactive)	> 100 µM (inactive)	> 100 µM (inactive)	> 100 µM (inactive)
O=C(O)c1cc(Sc2ccc([N+](=O)[O-])c(C(=O)O)c2)ccc1[N+](=O)[O-]	> 100 µM (inactive)	> 100 µM (inactive)	> 100 µM (inactive)	> 100 µM (inactive)	> 100 µM (inactive)	> 100 µM (inactive)	> 100 µM (inactive)	> 100 µM (inactive)	> 100 µM (inactive)	> 100 µM (inactive)	> 100	> 100 µM (inactive)	> 100 µM (inactive)	> 100 µM (inactive)	> 100 µM (inactive)	> 100 µM (inactive)	> 100 µM (inactive)
COc1cc(-c2cc(-c3ccccc3)nc(-c3c(OC)ccc4c(C)cc(=O)oc34)c2)cc(OC)c1OC	> 100 µM (inactive)	> 100 µM (inactive)	–	> 100 µM (inactive)	> 100 µM (inactive)	> 100 µM (inactive)	–	> 100 µM (inactive)	> 100 µM (inactive)	> 100 µM (inactive)	> 100	> 100 µM (inactive)	> 100 µM (inactive)	> 100 µM (inactive)	> 100 µM (inactive)	> 100 µM (inactive)	> 100 µM (inactive)
O=c1c2c3c(sc2nc2n1N=C(c1ccc([N+](=O)[O-])cc1)CS2)CCCC3	> 100 µM (inactive)	> 100 µM (inactive)	> 100 µM (inactive)	> 100 µM (inactive)	> 100 µM (inactive)	42.2 µM (inactive)	> 100 µM (inactive)	–	> 100 µM (inactive)	–	> 100	> 100 µM (inactive)	> 100 µM (inactive)	> 100 µM (inactive)	> 100 µM (inactive)	> 100 µM (inactive)	> 100 µM (inactive)
O=C(O)CSC(CC1(c2ccc(Cl)cc2)NC(=O)CS1)c1ccc(Cl)cc1 (stereo not given)	45.6 µM (inactive)	> 100 µM (inactive)	–	> 100 µM (inactive)	> 100 µM (inactive)	> 100 µM (inactive)	> 100 µM (inactive)	83.6 µM (inactive)	65.9 µM (inactive)	> 100 µM (inactive)	> 100	> 100 µM (inactive)	> 100 µM (inactive)	> 100 µM (inactive)	> 100 µM (inactive)	> 100 µM (inactive)	85.5 µM (inactive)
O=S(=O)(O)Nc1ccc(-c2nc3ccccc3s2)cc1Cl	> 100 µM (inactive)	> 100 µM (inactive)	> 100 µM (inactive)	> 100 µM (inactive)	> 100 µM (inactive)	8.09 µM (inactive)	> 100 µM (inactive)	> 100 µM (inactive)	> 100 µM (inactive)	> 100 µM (inactive)	> 100	> 100 µM (inactive)	> 100 µM (inactive)	–	> 100 µM (inactive)	> 100 µM (inactive)	> 100 µM (inactive)
